The test system of test [1] is KM12-AR (compound A resistant KM12 cell lines). Briefly: Growth inhibition test in compound A resistant KM12 cell lines (KM12-AR). Conditions: KM12-AR cells; single treatment. The format is cell-based, human. As for the experimental part:
Pharmacological Experiment Example 5: Growth Inhibition Test in Compound a Resistant KM12 Cell Lines
Using KM12 as TPM3-NTRK1-positive human colon cancer cell lines, a strain resistant to the compound A was established. A DMEM (Life technologies, product number: 11965) containing a 10 vol % FBS and 1 vol % penicillin-streptomycin liquid was prepared as a culture medium. The thawed KM12 was suspended in the culture medium. At room temperature, 180 g was centrifuged for 3 minutes, the supernatant was removed by suction, and the cell sediment was then re-suspended in the culture medium, and a total amount of 50 mL was inoculated in a 225 cm^2 flask (Asahi Glass Co., Ltd.). […]
Then, every two or three days, the culture medium was replaced or subcultured. […] The cell sediment was suspended in the DMEM culture medium, a part of the cell suspension was then collected, and the number of viable cells was counted. […]
Using KM12-AR, an effect when the compound A and trametinib, selumetinib, palbociclib, gefitinib, erlotinib, afatinib, lapatinib, neratinib or canertinib were combined was evaluated. […]
On the day when the compound was treated, 10 mM of each compound (DMSO solution) was serially diluted with DMSO to prepare a diluted solution. […] After the compound was added, the growth inhibition rate was calculated in the same method as in Pharmacological Experiment Example 3.

Test [2] has as its system TPM3-NTRK1-positive human colon cancer cell lines KM12. Briefly: Growth inhibition test in TPM3-NTRK1 positive KM12 cell lines (CellTiter-Glo, combination index). Conditions: named kinase inhibitor used in combination with compound A; KM12 cells, 72 hours; CI<1 synergistic. The format is cell-based. As for the experimental part:
Pharmacological Experiment Example 3: Growth Inhibition Test in TPM3-NTRK1 Positive KM12 Cell Lines
Using KM12 as TPM3-NTRK1-positive human colon cancer cell lines, an effect when 1-{2-[4-(2-amino-5-chloro-3-pyridinyl)phenoxy]-5-pyrimidinyl}-3-[2-(methylsulfonyl)-5-(trifluoromethyl)phenyl]urea (hereinafter sometimes referred to as a compound A) and trametinib, selumetinib, palbociclib, afatinib or erlotinib were combined was evaluated. Cells were subcultured using a DMEM containing a 10 vol % inactivated fetal bovine serum (FBS) and 1 vol % penicillin-streptomycin liquid as a culture medium before they underwent the experiment.
One day before the compound was treated, cells were floated using 0.25% Trypsin-EDTA, and the cells were collected into a centrifuge tube from a culture flask. At room temperature, 180 g of the cells were centrifuged for 3 minutes, and the cell sediment was then suspended in a DMEM culture medium. A part of the cell suspension was collected, the number of cells was counted, and the cells were then suspended in the DMEM culture medium at a cell density of 3.75×10^4 cells/mL to prepare a cell suspension. The cell suspension was inoculated at 80 μL/well in a 96-well tissue culture plate (Asahi Glass Co., Ltd.), and left for 24 hours under 37° C., 5% CO2, and 95% air conditions.
On the day when the compound was treated, 10 mM of each compound (DMSO solution) was serially diluted with DMSO to prepare a diluted solution. The diluted solution of each compound and DMSO were diluted 100-fold in a culture medium to prepare a 10-fold concentration of the treatment solution of each compound and the medium solution. The compound A solution or medium solution prepared above was added at 10 μL/well to wells of a 96-well tissue culture plate in which cells were stationary-cultured for 24 hours. Then, in the same manner, the trametinib, selumetinib, palbociclib, afatinib or erlotinib solution or the medium solution was added at 10 μL/well to wells of the 96-well tissue culture plate. […]
After the stationary culture was completed, a luminescent signal (relative luminescent unit, RLU) of each well was measured by a microplate reader using a CellTiter-Glo Luminescent Cell Viability Assay kit (Promega, G7571). An average value of RLUs of 3 wells of a medium group (a group treated with a medium solution having a compound concentration of zero (0)) was calculated, and a growth inhibition rate in each well was calculated by the following mathematical formula. […]
In order to analyze the combined effect, using a fluorescence intensity, the effective dose (ED)50, ED75, ED90 and ED95 were calculated, and a combination index (CI) described in Advances in enzyme regulation, vol. 22, 1984, pp. 27-55 was calculated for analysis. […]
(Cellular ATP, detected with luciferase, serves as a proxy for viable cell number.)

The test system of test [3] is ETV6-NTRK3 positive human leukemia cell lines IMS-M2. Briefly: Growth inhibition experiment in ETV6-NTRK3 positive IMS-M2 cell lines (combination index). Type of test: cell-based. Conditions: named kinase inhibitor used in combination with compound A; IMS-M2 cells, 72 hours; CI<1 synergistic. How it is done: Cells were subcultured using an RPMI culture medium containing a 10 vol % FBS and 1 vol % penicillin-streptomycin liquid before they underwent the experiment.
On the day when the compound was treated, cells were collected from a culture flask into a centrifuge tube. At room temperature, 300 g of cells were centrifuged for 3 minutes, and the cell sediment was then suspended in the RPMI culture medium.
The diluted solution of each compound and DMSO were diluted 100-fold in a culture medium to prepare a 10-fold concentration of the treatment solution of each compound and the medium solution.

The structures appear in SMILES notation.

With `CS(=O)(=O)c1ccc(C(F)(F)F)cc1NC(=O)Nc1cnc(Oc2ccc(-c3cc(Cl)cnc3N)cc2)nc1` [1-{2-[4-(2-amino-5-chloro-3-pyridinyl)phenoxy]-5-pyrimidinyl}-3-[2-(methylsulfonyl)-5-(trifluoromethyl)phenyl]urea], the “growth inhibitory effect, treated alone” value in test [1] is “no growth inhibitory effect was observed”.
As for `CN(C)C/C=C/C(=O)Nc1cc2c(Nc3ccc(F)c(Cl)c3)ncnc2cc1O[C@H]1CCOC1` [Afatinib, afatinib], the “CI (median value)” value in test [2] was 0.861; in test [3], 0.869.
The matching figures for `CC(=O)c1c(C)c2cnc(Nc3ccc(N4CCNCC4)cn3)nc2n(C2CCCC2)c1=O` [Palbociclib, palbociclib]: 0.660 and 0.719.
For `Cn1cnc2c(F)c(Nc3ccc(Br)cc3Cl)c(C(=O)NOCCO)cc21` [Selumetinib, selumetinib] the same measures were 0.674 and 0.549.
For `CC(=O)Nc1cccc(-n2c(=O)n(C3CC3)c(=O)c3c(Nc4ccc(I)cc4F)n(C)c(=O)c(C)c32)c1` [Trametinib, trametinib] the same measures were 0.705 and 0.652.

These data come from US20210000830A1, “CANCER TREATMENT METHOD USING Trk INHIBITOR AND KINASE INHIBITOR IN COMBINATION” (ONO PHARMACEUTICAL CO., LTD., priority 2017, published 2021).
